Results published in paper PMC7363885, “Fluorescent artificial receptor-based membrane assay (FARMA) for spatiotemporally resolved monitoring of biomembrane permeability” (Communications Biology, 2020).

Legend:
FAR-1 = test: Fluorescence titration, FAR•analyte complex formation in homogeneous solution; format: binding
Description: Fluorescence titrations were carried out in aqueous HEPES buffer (10 mM, pH 7, 22 °C) unless stated otherwise. To a solution of the FAR (typically at 10–30 μM) was stepwise added a solution of the analyte (typically up to 2 mM) and the fluorescence spectra were recorded. The normalized emissions at 450 nm (FAR-1) or at 370 nm (FAR-2) were fitted with an equation for a 1 : 1 binding by a least-square fit. The resulting affinity constants are reported in Supplementary Table 1. Representative titration plots are shown in Supplementary Fig. 1. Note that the high CB8-dye binding affinities correspond to a near quantitative degree of host-dye complexation, i.e., quantitative formation of the FAR, such that the subsequent binding of the analyte can be treated independently.

[1] = FARMA: permeation of analytes into FAR-loaded liposomes (fluorescence, cuvette or stopped-flow); conditions: for membrane permeability (in words): FARMA with FAR-loaded liposomes or GUVs
From the text: Elementary physical parameters, such as permeability coefficients, can be extracted from the full kinetic FARMA data. This kinetic profile → parameter mapping requires some assumptions to be made in regard to the permeation mechanism. We applied a reported permeation model for liposomes[31] to arrive at permeation rate constants (kp) and apparent permeability coefficients (Papp). The derivation of the mathematical relation (1), linking the fundamental permeability rate constant and permeability coefficient to experimental measurable kobs rate constants, the known total analyte and total FAR concentration, and the experimentally determined liposome radius (r), is shown in the Supplementary Information.1 Papp=kp⋅r/3=kobs/canalyte⋅cFAR⋅r/3 […]
The volume-to-surface correction factor r/3 accounts for the fact that the observed rates depend on the size, i.e., radius r, of the liposomal assembly. […] The initial-rate method can also be applied, see the Supplementary Information. Moreover, kobs/canalyte can be estimated by single-point measurements at selected canalyte concentration.
A solution of 2.5 mg/mL of POPC and 0.33 mg/mL of POPS in chloroform was purged with nitrogen and dried overnight under […] vacuum. […] The resulting FAR-loaded liposomes were separated from non-encapsulated species by size-exclusion chromatography (NAP-25 column), while maintaining the same buffer. The absence of non-encapsulated FAR was confirmed by adding a non-membrane-permeable species such as tryptophan to a fluorescence cuvette containing 25 µL of liposomes diluted in 1 mL HEPES (10 mM) buffer. Complete removal of non-encapsulated FAR is indicated by the absence of a significant fluorescence change upon Trp addition.
In a typical experiment, 20 µL of liposome solution loaded with FAR was diluted in 1 mL HEPES buffer (10 mM, pH 7.0) in a 1 mL quartz cuvette. An emission spectrum was recorded after 10 min of “equilibration time” on a Varian Eclipse spectrofluorometer thermostated at 22 °C with a water bath using λexc = 400 nm for FAR-1, λexc = 310 nm for FAR-2, and λexc = 330 nm for FAR-3. In the time-resolved experiments, the emission intensity at λobs = 450 nm for FAR-1, λobs = 370 nm for FAR-2, and λobs = 370 and 500 nm for FAR-3 (the latter is the emerging excimer band for certain FAR-3•analyte complexes) was recorded with an averaging time of 0.5 s. […] For single-point experiments, a full spectrum was recorded after a fixed time or several time intervals after analyte addition. […] Only FAR-analyte combinations were used for FARMA, for which no significant autofluorescence and competitive light absorption of the analyte occurred.
For each experiment, measurements from 6 injections were accumulated and the average of these traces was used for data analysis.
Calculation of the unimolecular permeation rate constants ( kp) and of the apparent permeability coefficients (Papp).
The passive diffusion (permeation) of small non-charged compounds follows a modified Fick’s law and can be expressed by a first order kinetics.1 Similar to first order chemical reactions, the kinetics curve can therefore be fitted monoexponentially to obtained the observed permeation rates (kobs). In our assay set-up, such an exponential fit is an approximation, since it neglects that a certain fraction of transported analyte is bound to the FAR and cannot exit the liposome. Nevertheless, the fit of the kinetic curves of the […]
approximation is justified.

[2] = FAR-1, 10 mM HEPES buffer (pH 7), 1:1 binding model, error estimate ≤ 20%
[3] = monoexponential fit, analyte 40 µM (bulk), FAR-2 ca. 500 µM in the liposome interior, 20% error

SMILES | Ka (FAR-1; [2]) | kobs [1, 3] [s–1] | kobs ([1]; source data of Fig. 5) | log(kobs) ([1]; source data of Fig. 5) | also measured
O=C(N[C@H](CO)[C@H](O)c1ccc([N+](=O)[O-])cc1)C(Cl)Cl [chloramphenicol, reference compound] | < 1 10^3 M−1 |  |  |  | 
N#Cc1ccc(N)cc1 [4CN-aniline, 4-cyanoaniline] |  | 6.5 | 6.5 | 0.8129 | 
Oc1ccccc1O [1,2-dihydroxybenzene] | 20 10^3 M−1 |  |  |  | membrane permeability (in words) [1]: “instantaneously” permeating
COC(=O)[C@@H](N)Cc1c[nH]c2ccccc12 [TrpOMe, tryptophan methyl ester] | 14 10^3 M−1 |  |  |  | membrane permeability (in words) [1]: rather quickly permeating
c1ccc2ncccc2c1 [quinoline] | 2.2 10^3 M−1 |  |  |  | 
Oc1ccc(F)cc1 [4F-phenol] |  | 2.8 | 2.8 | 0.4472 | 
c1ccccc1 [benzene] | 4 10^3 M−1 |  |  |  | 
c1ccc2ccccc2c1 [naphthalene] | > 50 10^3 M−1 |  |  |  | membrane permeability (in words) [1]: permeating
CNC[C@H](O)c1ccc(O)c(O)c1 [adrenaline] | < 1 10^3 M−1 |  |  |  | membrane permeability (in words) [1]: very slowly permeating
c1ccc2[nH]cnc2c1 [benzimidazole] | 7.5 10^3 M−1 | 2.7 | 2.7 | 0.4314 | 
CN(C)c1ccc(C#N)cc1 [DMABN, 4-(N,N-dimethylamino) benzonitrile] |  | 0.68 | 0.68 | -0.1675 | 
NCCc1ccccc1 [phenethylamine] | 8 10^3 M−1 | 0.22 | 0.22 | -0.6576 | 
CC(=O)Nc1ccc(O)cc1 [paracetamol, reference compound] | 7 10^3 M−1 |  |  |  | 
Nc1c(F)c(F)c(F)c(F)c1F [pentafluoroaniline] |  | 0.51 | 0.51 | -0.2924 | 
Nc1ccc(Cl)cc1 [4Cl-aniline, 4-chloroaniline] |  | 4.0 | 4 | 0.6021 | 
C=C(C)[C@H]1Cc2c(ccc3c2O[C@@H]2COc4cc(OC)c(OC)cc4[C@@H]2C3=O)O1 [rotenone] | 4.8 10^3 M−1 |  |  |  | 
Cc1ccccc1O [2Me-phenol, 2-methylphenol] |  | 0.33 | 0.33 | -0.4815 | 
Nc1ccc(F)cc1 [4F-aniline] |  | 4.4 | 4.4 | 0.6434 | 
OC[C@H]1O[C@@H](Oc2ccccc2)[C@H](O)[C@@H](O)[C@H]1O [phenyl-β-D-galactopyranoside] | 30 10^3 M−1 |  |  |  | membrane permeability (in words) [1]: slowly permeating; time of FARMA signal response (t) ([1]; slow response, without enzyme): > 5 min

SMILES | Ka (FAR-1; [2]) | kobs [1, 3] [s–1] | kobs ([1]; source data of Fig. 5) | log(kobs) ([1]; source data of Fig. 5) | also measured
O=C(O)C(=O)Cc1ccc(O)cc1 [4-hydroxyphenylpyruvic acid] | 17 10^3 M−1 |  |  |  | 
O=C1C=CC(=O)C=C1 [1,4-benzoquinone] | 0.5 10^3 M−1 |  |  |  | 
NCCc1ccc(O)c(O)c1 [dopamine] | 0.10 10^3 M−1 |  |  |  | membrane permeability (in words) [1]: very slowly permeating
CCc1ccc(O)cc1 [4Et-phenol, 4-ethylphenol] | 1.2 10^3 M−1 | 0.24 | 0.24 | -0.6198 | 
c1ccc2[nH]ncc2c1 [indazole] |  | 2.4 | 2.4 | 0.3802 | 
O=C(O)Cc1cc(O)ccc1O [homogentisic acid] |  |  |  |  | Ka (FAR-1; pH 7): 0.14
O=P(O)(O)Oc1ccc2ccccc2c1 [2-naphthyl phosphate] |  |  |  |  | membrane permeability (in words) [1]: membrane-impermeable
CCC(=O)Nc1ccc(Cl)c(Cl)c1 [propanil] | 8 10^3 M−1 | 42 | 42 | 1.623 | 
Nc1ccc(I)cc1 [4I-aniline] |  | 3.1 | 3.1 | 0.4914 | 
Oc1ccc(I)cc1 [4I-phenol, 4-iodophenol] |  | 0.69 | 0.69 | -0.1611 | 
Oc1ccc(Cl)cc1 [4Cl-phenol, 4-chlorophenol] |  | 2.2 | 2.2 | 0.3424 | 
N[C@@H](Cc1c[nH]c2ccc(O)cc12)C(=O)O [5HO-Trp, 5-hydroxy tryptophan] | 7.7 10^3 M−1 |  |  |  | 
CC(=O)NC(Cc1c[nH]c2ccccc12)C(=O)O (centres unmarked) [NAc-Trp] | 50 10^3 M−1 |  |  |  | 
CCCN(CCOc1c(Cl)cc(Cl)cc1Cl)C(=O)n1ccnc1 [prochloraz] | 2.8 10^3 M−1 |  |  |  | 
O=[N+]([O-])c1ccc(O)cc1 [4NO2-phenol] |  | 38 | 38 | 1.58 | 
O=C1CCC(=O)N1c1ccccc1 [N-phenylsuccinimide] | 30 10^3 M−1 | 1.1 | 1.1 | 0.04139 | 
COc1ccc2cc([C@H](C)C(=O)O)ccc2c1 [naproxen, reference compound] | 2 10^3 M−1 |  |  |  | 
Nc1ccc(Br)cc1 [4Br-aniline, 4-bromoaniline] |  | 4.0 | 4 | 0.6021 | 
CC(C)(O/N=C(\C(=O)N[C@@H]1C(=O)N2C(C(=O)[O-])=C(C[n+]3ccccc3)CS[C@H]12)c1csc(N)n1)C(=O)O [ceftazidime, reference compound] | < 1 10^3 M−1 |  |  |  | 
